From patent US7138388B2, “Methods to treat autoimmune and inflammatory conditions” (Celmed Oncology (USA), Inc., priority 2001, dated 2006) come the findings set out here.

The test has as its system animals with collagen-induced arthritis. Description: Collagen-induced arthritis in mice: treatment after disease onset, assessed by clinical score and paw swelling. Format: in vivo, male DBA/1 mice. The protocol:
Arthritis was induced in male DBA/1 mice (8–10 weeks old) by intradermal injection of bovine type II collagen, purified in-house at the Kennedy Institute of Rheumatology as previously described (Miller, E. J. et al. (1972)). Collagen was administered in complete Freund's adjuvant (Difco, Detroit, Michigan). Onset of arthritis was variable, occurring from Day 14 up to Day 40 after immunization. Arthritis onset was considered to occur on the day that swelling and/or erythema were observed. Clinical score is a composite of disease severity and the number of limbs affected, and was monitored daily from onset of disease and used as an assessment of disease progress. The scoring used was: 0, Normal; 1, slight swelling with erythema; 2, pronounced swelling; 3, joint rigidity. In addition, the extent of paw swelling reflects the degree of edema in affected limbs. Arthritis increased progressively over 10 days as reflected by both clinical score and paw swelling.
Anti-TNF antibody was used in these experiments was as described by Marinova-Mutafchieva, L. et al. (2000). NB1011 was administered daily by intraperitoneal administration at 2.5 mg total dose per day. Anti-TNF antibody was compared with NB1011 because, at present, antiTNF antibody is the optimal single agent for treatment of collagen induced arthritis (Marinova-Mutafchieva, L. et al. (2000)).
Following immunization with collagen, mice were maintained until a significant clinical score for disease progression was achieved (between 2.5 and 3.5, see FIG. 1 and Methods). Mice were then treated with control saline injections, NB1011, or with anti-TNF antibody as a positive control. […] Paw swelling is an alternative measure of CIA disease severity.

On to “5-(2-Bromovinyl)-2′-deoxyuridine phenyl N-methoxy-L-alaninyl phosphoramidate [NB1011]”, for which the “difference between NB1011 and anti-TNF groups with regard to clinical score” value (FIG. 1, NB1011 compared with anti-TNF positive control) is given as “no significant difference”. In addition, the “disease suppression by clinical score” value (FIG. 1, vs saline-treated control group, p<0.05, NB1011 intraperitoneal daily, 2.5 mg total dose per day, treatment started at clinical score between 2.5 and 3.5) was “significant disease suppression”. The “difference between NB1011 and anti-TNF groups with regard to paw swelling” value (FIG. 2, NB1011 compared with anti-TNF positive control) was “no significant difference”. Moreover, the “suppression of swelling relative to anti-TNF group” value (FIG. 2, qualitative remark) is given as “may have been less dramatic”. Moreover, under “FIG. 2, vs saline-treated control group, p<0.05, NB1011 intraperitoneal daily, 2.5 mg total dose per day”, the “disease suppression by paw swelling” value is reported as “significant disease suppression”. The “activity by comparison with earlier reported work on other agents” value (comparison with literature (Malfait 2000; Miotla 2000; Marinova-Mutafchieva 2000)) is “superior to anti-angiogenesis agents, an anti-CD4 immunosuppressive agent, and cannabidiol”.
